Laboratory results taken from publication PMC7714403 (JCI Insight, 2020).

What was measured:
[1] = system: primary FLT3-ITD/MLL-PTD murine leukemia cells; assay: CellTiterGlo viability assay, ex vivo; type: cell-based; conditions: Mus musculus, 72 hours
Experimental: Drug treatments were carried out for 72 hours. Details are provided in the Supplemental Methods.
Cell viability of primary samples […]
For murine or human primary AML cells, 100,000 cells/well were plated in a 96-well plate and treated with increasing concentrations of drug. Cell viability, via trypan blue, was measured every 24 hours. If the viability fell below 50% or at 72 hours of treatment, whichever came earlier, cell viability of each plate was measured via CellTiter-Glo. Primary human AML cells were obtained from the OSUCCC Leukemia Tissue Bank Shared […]

[2] = system: primary FLT3-ITD/IDH2-R140Q murine leukemia cells; assay: CFU assay; type: cell-based, mouse; conditions: for Colony formation: 20 nM and 50 nM
Experimental: (§1) For human primary CFU assays, cells were cultured in MethoCult H4035 Optimum without EPO (Stemcell Technologies). For mouse primary CFU assays, cells were directly cultured in MethoCult M3231 (Stemcell Technologies) supplemented with 45 ng/mL of murine IL-6 (mIL-6), mIL-3, and mSCF. Both human and mouse primary cells 10,000 cells were plated in duplicate for each drug concentration. For cell line CFU assays, MV4-11 cells were treated with drugs in the presence of 20 ng/mL IL-3, GM-CSF, or FGF2. Cells were plated in MethoCult H4230 (Stemcell Technologies) in duplicates at 250 cells/plate. […] Colonies were identified as clusters containing 40 or more cells. For CFU assays using human primary CD34^+ cells, umbilical cord blood was obtained from the OSU Comprehensive Cancer Center (CCC) Leukemia Tissue Bank Shared Resource, and mononuclear cells were isolated by using density gradient centrifugation. CD34^+ cells were purified using the CD34 UltraPure MicroBead Kit (Miltenyi Biotec) according to the manufacturer’s instructions. CFU assay with CD34^+ cells was performed as described above, and the total number of colonies were counted after 7–10 days.

[3] = system: primary FLT3-ITD/MLL-PTD murine leukemia cells; assay: CFU assay; type: cell-based, mouse; conditions: 20 nM and 50 nM
Experimental: as §1

[4] = target: T1, RSK1 domain2 (Homo sapiens, UniProt Q15418); assay: KiNativ, OCI cells live cell; type: cell-based; conditions: 2 h, labeling site Lys2, peptide […]
T1 construct: RSK1 domain2
T1 sequence (Q15418 whole entry, the tested form may be a part): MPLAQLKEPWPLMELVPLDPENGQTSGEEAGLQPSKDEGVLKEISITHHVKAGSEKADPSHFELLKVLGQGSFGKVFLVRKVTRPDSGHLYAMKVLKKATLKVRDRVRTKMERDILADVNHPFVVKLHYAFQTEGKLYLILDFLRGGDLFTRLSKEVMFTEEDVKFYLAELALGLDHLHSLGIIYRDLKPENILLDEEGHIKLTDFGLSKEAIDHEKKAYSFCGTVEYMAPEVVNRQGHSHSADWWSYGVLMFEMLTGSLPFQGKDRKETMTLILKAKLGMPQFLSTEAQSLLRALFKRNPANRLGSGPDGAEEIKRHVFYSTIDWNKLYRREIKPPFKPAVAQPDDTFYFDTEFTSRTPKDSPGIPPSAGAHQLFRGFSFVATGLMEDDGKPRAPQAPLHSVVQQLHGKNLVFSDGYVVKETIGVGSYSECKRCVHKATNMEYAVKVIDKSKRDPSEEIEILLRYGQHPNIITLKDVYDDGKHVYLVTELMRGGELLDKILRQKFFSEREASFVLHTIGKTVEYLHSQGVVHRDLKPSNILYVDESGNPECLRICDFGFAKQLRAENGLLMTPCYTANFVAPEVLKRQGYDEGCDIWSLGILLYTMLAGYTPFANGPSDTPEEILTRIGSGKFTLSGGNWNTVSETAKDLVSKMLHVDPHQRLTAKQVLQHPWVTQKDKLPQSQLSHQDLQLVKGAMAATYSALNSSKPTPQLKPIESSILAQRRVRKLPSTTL

[5] = target: T2, FLT3 D835Y (Homo sapiens, UniProt P36888, D835Y); assay: KdELECT binding assay
T2 construct: purchased Eurofins DiscoverX

[6] = system: Wnk1, Wnk2, Wnk4; assay: KiNativ, OCI cells live cell; type: cell-based, human; conditions: labeling site Activation Loop, peptide IGDLGLATLKR
[7] = system: AKT1, AKT3; assay: KiNativ, OCI cells live cell; type: cell-based, human
[8] = target: YANK3 (Homo sapiens, UniProt Q86UX6); assay: KiNativ, OCI cells live cell; type: cell-based; conditions: 2 h, labeling site Lys2, peptide […]
Sequence of YANK3 (Q86UX6 whole entry): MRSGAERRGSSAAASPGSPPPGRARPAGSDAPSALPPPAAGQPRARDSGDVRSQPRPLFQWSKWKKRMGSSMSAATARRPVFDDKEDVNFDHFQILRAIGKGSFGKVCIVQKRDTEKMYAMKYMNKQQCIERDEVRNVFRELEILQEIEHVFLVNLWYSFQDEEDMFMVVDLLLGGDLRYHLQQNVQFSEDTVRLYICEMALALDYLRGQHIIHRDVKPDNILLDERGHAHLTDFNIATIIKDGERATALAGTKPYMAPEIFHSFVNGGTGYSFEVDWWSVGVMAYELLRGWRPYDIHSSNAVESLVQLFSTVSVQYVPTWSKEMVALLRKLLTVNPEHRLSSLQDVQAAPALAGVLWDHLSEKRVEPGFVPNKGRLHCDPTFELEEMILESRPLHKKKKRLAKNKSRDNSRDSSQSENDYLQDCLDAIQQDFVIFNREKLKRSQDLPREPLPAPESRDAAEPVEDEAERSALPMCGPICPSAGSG

[9] = target: T3, MAP2K3 (Homo sapiens, UniProt P46734); assay: KiNativ, OCI cells live cell; type: cell-based; conditions: 2 h
T3 sequence (P46734 1-347): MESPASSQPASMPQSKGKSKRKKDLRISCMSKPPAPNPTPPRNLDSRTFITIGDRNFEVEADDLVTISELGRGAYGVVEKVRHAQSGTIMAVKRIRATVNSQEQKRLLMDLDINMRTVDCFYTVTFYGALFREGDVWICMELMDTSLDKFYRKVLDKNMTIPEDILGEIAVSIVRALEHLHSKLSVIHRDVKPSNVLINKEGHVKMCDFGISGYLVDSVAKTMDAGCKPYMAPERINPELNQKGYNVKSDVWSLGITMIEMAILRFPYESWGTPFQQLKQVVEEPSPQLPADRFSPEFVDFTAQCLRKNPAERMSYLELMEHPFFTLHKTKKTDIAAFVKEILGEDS

[10] = target: Erk2 (Homo sapiens, UniProt P28482); assay: KiNativ, OCI cells live cell; type: cell-based; conditions: 2 h, labeling site Lys2, peptide […]
Sequence of Erk2 (P28482 whole entry): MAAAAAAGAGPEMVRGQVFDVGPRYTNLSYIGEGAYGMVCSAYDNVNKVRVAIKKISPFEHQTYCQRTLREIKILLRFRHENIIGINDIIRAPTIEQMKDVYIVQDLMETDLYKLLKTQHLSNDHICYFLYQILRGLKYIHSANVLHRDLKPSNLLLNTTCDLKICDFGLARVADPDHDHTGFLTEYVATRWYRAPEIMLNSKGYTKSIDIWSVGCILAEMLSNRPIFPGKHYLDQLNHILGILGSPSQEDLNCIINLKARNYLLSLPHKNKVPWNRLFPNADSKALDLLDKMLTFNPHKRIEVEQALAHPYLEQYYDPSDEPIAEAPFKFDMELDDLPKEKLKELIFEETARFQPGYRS

[11] = system: pAURKA, pAURKB, pAKT, and MCL1 in OCI-AML3 cells; assay: Western blot, signaling inhibition; type: cell-based, human; conditions: 100 nM, 4 hours
Experimental: (§2) MOM13 cells were serum starved (RPMI plus 0.5% FBS) for 18–24 hours prior to start of drug treatment. For other cells, they were not serum starved. Drug treatments were carried out for 1 or 4 hours, at which time cells were lysed with Cell Lysis buffer (CST) or RIPA buffer (CST) supplemented with protease and phosphatase inhibitors. […] Western blots were developed with either Signal Fire ECL reagent (CST) or SuperSignal West Femto Maximum Sensitivity Substrate (Invitrogen) using Film or Odyssey FC Imaging System (LI-COR Biosciences). Western blots were repeated in 2–3 biological replicate experiments.

[12] = system: phospho-FLT3 and phospho-STAT5 in MOLM13 and MV4-11 cells; assay: Western blot, signaling inhibition; type: cell-based, human; conditions: 4 hours
Experimental: as §2

[13] = target: RIPK3 (Homo sapiens, UniProt Q9Y572); assay: KiNativ, OCI cells live cell; type: cell-based; conditions: 2 h, labeling site Lys2, peptide […]
Sequence of RIPK3 (Q9Y572 whole entry): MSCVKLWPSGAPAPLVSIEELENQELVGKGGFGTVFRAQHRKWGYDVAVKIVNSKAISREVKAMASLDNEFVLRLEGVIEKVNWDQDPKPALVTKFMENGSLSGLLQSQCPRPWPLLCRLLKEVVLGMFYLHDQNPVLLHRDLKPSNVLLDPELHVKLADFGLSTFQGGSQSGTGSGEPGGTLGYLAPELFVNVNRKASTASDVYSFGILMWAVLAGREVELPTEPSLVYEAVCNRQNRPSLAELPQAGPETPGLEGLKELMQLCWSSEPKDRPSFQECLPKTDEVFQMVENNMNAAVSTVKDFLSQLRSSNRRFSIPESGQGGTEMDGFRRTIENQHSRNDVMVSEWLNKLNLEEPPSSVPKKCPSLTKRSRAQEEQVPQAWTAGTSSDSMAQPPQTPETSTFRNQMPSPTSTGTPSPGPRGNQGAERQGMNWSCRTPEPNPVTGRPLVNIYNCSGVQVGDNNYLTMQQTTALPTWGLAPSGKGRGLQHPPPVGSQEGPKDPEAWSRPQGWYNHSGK

[14] = target: T4, PLK4 (Homo sapiens, UniProt O00444); assay: KdELECT binding assay
T4 construct: purchased Eurofins DiscoverX
T4 sequence (O00444 whole entry): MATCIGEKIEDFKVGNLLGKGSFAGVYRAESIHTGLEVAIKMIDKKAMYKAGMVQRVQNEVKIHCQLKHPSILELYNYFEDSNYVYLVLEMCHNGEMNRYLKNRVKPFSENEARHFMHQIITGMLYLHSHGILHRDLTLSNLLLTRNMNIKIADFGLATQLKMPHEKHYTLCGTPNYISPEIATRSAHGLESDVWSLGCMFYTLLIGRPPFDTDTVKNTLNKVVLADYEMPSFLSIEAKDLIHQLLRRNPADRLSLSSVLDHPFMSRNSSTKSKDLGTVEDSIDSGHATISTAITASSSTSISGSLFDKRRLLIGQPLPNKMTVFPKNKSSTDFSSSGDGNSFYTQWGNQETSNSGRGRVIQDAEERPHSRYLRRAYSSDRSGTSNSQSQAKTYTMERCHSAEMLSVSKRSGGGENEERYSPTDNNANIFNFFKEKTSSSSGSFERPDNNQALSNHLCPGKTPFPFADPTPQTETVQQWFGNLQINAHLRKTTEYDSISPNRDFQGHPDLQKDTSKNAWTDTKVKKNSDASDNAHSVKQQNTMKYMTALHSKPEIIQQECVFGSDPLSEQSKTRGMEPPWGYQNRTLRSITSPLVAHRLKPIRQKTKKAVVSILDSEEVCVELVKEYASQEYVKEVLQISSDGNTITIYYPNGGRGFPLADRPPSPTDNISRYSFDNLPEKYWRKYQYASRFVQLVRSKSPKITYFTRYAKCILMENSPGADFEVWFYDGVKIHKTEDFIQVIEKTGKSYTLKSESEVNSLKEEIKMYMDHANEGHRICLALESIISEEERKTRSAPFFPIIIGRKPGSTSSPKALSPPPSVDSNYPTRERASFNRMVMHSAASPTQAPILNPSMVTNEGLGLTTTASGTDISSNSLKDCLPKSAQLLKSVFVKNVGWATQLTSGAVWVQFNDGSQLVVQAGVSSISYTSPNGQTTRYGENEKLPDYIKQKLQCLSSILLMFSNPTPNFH

[15] = target: MAP3K2 (Homo sapiens, UniProt Q9Y2U5); assay: KiNativ, OCI cells live cell; type: cell-based; conditions: 2 h, labeling site Lys1, peptide […]
Sequence of MAP3K2 (Q9Y2U5 whole entry): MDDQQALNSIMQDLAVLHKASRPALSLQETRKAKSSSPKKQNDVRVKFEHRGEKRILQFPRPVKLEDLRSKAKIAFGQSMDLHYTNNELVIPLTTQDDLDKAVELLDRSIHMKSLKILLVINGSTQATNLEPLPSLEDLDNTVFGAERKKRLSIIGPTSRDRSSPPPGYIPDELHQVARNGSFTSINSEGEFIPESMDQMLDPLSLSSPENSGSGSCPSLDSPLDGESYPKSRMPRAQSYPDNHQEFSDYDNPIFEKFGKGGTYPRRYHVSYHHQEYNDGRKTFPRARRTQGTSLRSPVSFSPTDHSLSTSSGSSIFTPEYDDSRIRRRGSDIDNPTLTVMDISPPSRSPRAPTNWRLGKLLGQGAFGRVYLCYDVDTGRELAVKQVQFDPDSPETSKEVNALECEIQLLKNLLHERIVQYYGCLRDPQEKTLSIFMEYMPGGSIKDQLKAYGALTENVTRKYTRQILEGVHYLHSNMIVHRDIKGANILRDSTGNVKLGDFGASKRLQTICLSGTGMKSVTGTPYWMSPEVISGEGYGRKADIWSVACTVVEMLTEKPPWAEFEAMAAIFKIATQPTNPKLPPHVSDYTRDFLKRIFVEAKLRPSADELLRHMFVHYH

[16] = target: CDK6 (Homo sapiens, UniProt Q00534); assay: KiNativ, OCI cells live cell; type: cell-based; conditions: 2 h, labeling site Lys2, peptide […]
Sequence of CDK6 (Q00534 whole entry): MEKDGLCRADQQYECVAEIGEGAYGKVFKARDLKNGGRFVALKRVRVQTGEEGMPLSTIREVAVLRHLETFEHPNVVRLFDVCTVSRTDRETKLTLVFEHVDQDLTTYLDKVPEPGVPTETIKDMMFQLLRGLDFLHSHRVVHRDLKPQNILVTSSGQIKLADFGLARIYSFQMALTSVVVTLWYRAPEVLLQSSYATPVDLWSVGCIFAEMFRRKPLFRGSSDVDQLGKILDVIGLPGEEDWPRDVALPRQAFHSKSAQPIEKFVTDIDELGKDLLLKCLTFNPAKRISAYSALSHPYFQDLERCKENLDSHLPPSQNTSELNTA

[17] = target: PKCd (Homo sapiens, UniProt Q05655); assay: KiNativ, OCI cells live cell; type: cell-based; conditions: 2 h, labeling site Other, peptide […]
Sequence of PKCd (Q05655 whole entry): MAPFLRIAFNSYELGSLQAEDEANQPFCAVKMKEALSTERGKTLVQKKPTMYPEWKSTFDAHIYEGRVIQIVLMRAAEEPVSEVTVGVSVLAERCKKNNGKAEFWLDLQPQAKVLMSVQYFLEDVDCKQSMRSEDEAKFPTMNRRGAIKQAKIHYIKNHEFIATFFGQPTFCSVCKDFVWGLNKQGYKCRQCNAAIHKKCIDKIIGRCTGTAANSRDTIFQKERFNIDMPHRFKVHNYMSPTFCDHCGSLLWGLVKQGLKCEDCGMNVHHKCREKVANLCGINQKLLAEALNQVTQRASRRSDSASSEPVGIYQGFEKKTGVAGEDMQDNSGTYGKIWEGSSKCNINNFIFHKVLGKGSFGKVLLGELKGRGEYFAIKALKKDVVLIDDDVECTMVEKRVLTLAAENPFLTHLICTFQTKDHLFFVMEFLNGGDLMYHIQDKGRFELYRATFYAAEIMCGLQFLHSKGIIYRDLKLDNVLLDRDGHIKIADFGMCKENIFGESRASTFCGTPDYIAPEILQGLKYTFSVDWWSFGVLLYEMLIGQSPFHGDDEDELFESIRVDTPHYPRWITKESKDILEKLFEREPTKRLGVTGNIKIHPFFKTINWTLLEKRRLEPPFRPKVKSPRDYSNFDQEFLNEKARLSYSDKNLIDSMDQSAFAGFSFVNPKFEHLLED

[18] = system: MARK3, MARK4; assay: KiNativ, OCI cells live cell; type: cell-based, human; conditions: labeling site Lys1, peptide EVAIKIIDK

With `CCc1nc(C(N)=O)c(Nc2ccc(N3CCC(N4CCN(C)CC4)CC3)c(OC)c2)nc1NC1CCOCC1` [Gilteritinib, gilteritinib] the IC50 [1] was 1550 nM, the Colony formation [2] was “modest activity” and the Colony formation [3] was “no activity”.

In the case of `CN1CCN(Cc2ccc(Nc3ncc(Cl)c(Nc4ccccc4S(=O)(=O)N(C)C)n3)cc2)CC1` [TP-0903], the inhibition at 0.1 µM [4] is reported as 8.6%, the Kd [5] is reported as 1.4 nM and the Inhibition [6] is reported as -23.7%. It also gave an Inhibition ([7]; labeling site Lys1, peptide YYAMKILK) of -15.9%, an Inhibition ([7]; labeling site Lys2, peptide DLKLENLMLDKDGHIK) of -30.0% and an inhibition at 0.1 µM [8] of 8.4%. The inhibition at 0.1 µM ([9]; labeling site Activation Loop, peptide MCDFGISGYLVDSVAKTMDAGCKPYMAPER) was 6.8%, the inhibition at 0.1 µM ([9]; labeling site Lys1, peptide HAQSGTIMAVKR) was 8% and the inhibition at 0.1 µM ([9]; labeling site Lys2, peptide DVKPSNVLINK) was 8.2%. The inhibition at 0.1 µM [10] was 22.7%, the IC50 [1] was 400 nM and the “pAURKA, pAURKB, pAKT, and MCL1 by immunoblot” value [11] was “inhibited”. The “phospho-FLT3 and phospho-STAT5 by immunoblot” value [12] was “inhibited”, the inhibition at 0.1 µM [13] was 2.8% and the Kd [14] was under 5 nM. For the same molecule, the inhibition at 0.1 µM [15] was 30.6%, the inhibition at 0.1 µM [16] was 74.1% and the Colony formation [2] was “inhibited colony formation”. The Colonies ([2]; 50nM, 7 day CFU assay) was 0 colonies, the Colony formation [3] was “inhibited colony formation” and the inhibition at 0.1 µM [17] was -22.5%. The Inhibition [18] was 43.9%.
